Measured values as given in US20240208992A1, “MACROCYCLES AS CFTR MODULATORS” (Idorsia Pharmaceuticals Ltd, priority 2021, published 2024).

Molecular target: human F508del-CFTR (Homo sapiens, UniProt P13569, DEL508-508)
Experiment: F508del-CFTR cell surface expression (corrector activity), DiscoveRx ß-galactosidase complementation chemiluminescence assay in recombinant U2OS cell line;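 further: U2OS cells co-expressing ProLink-tagged F508del-CFTR and a membrane-anchored enzyme acceptor, where more surface CFTR restores β-galactosidase activity measured by chemiluminescence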
Details: U2OS cells, 16h compound incubation; for EC50: EC50, F508del-CFTR cell surface expression, geomean of several measurements; for Emax: U2OS, in relation to the Emax of the corrector lumacaftor (=100%), arithmetic mean

human F508del-CFTR, sequence (P13569 with tags, fused parts or gaps DEL508-508): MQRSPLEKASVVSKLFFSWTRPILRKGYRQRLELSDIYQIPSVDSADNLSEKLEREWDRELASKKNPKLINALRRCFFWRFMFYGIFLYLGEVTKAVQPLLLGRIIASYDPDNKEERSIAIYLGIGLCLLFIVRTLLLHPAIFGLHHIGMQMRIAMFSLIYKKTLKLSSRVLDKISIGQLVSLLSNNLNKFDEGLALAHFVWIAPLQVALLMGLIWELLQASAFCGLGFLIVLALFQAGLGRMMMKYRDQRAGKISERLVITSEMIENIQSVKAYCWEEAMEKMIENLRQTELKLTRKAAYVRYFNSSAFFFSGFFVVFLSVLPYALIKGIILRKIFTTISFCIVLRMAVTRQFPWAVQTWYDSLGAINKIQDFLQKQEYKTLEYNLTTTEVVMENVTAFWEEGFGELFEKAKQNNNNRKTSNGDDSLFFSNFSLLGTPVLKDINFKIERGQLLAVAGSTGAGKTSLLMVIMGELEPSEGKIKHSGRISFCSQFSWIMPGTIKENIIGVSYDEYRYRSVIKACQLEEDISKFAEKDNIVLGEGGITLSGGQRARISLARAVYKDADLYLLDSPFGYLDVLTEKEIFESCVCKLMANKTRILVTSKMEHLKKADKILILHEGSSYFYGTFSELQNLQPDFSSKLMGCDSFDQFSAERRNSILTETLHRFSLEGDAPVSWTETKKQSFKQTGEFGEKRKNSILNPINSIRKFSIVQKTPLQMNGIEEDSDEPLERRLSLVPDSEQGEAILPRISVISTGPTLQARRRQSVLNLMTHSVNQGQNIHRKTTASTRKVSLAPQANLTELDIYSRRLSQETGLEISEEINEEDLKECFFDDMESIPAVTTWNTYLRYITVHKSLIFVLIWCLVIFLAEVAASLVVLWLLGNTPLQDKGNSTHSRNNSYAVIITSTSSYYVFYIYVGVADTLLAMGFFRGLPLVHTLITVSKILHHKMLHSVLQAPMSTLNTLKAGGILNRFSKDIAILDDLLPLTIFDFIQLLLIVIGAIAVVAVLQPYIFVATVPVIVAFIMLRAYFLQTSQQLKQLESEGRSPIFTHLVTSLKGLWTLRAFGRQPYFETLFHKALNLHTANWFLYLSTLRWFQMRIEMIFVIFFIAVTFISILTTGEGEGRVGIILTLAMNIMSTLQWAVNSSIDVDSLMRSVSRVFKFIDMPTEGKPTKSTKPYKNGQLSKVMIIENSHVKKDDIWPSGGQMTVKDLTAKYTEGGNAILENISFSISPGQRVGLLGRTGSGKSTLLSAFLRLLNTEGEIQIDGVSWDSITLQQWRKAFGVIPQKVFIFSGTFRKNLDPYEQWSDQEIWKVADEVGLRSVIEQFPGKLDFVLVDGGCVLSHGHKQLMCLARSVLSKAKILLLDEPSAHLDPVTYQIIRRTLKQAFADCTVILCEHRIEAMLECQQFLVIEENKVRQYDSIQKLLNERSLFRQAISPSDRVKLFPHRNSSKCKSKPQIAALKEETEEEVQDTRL

SMILES | EC50 | Emax
COc1noc(CCNC(=O)[C@@H]2CC(=O)N(C)[C@@H](CC(C)C)C(=O)N(C)C3(CC(F)(F)C3)C(=O)N[C@H](Cc3ccccc3)COc3ccc4cnc(C)cc4c3C(=O)N2)n1 [Example 954, (3′S,7′S,13′R)-13′-benzyl-3,3-difluoro-7′-isobutyl-N-(2-(3-methoxy-1,2,4-oxadiazol-5-yl)ethyl)-6′,9′,20′-trimethyl-1′,5′,8′,11′-tetraoxo-2′,3′,4′,5′,6′,7′,8′,9′,11′,12′,13′,14′-dodecahydro-1′H-spiro[cyclobutane-1,10′-[1]oxa[4,7,10,14]tetraazacycloheptadecino[16,17-f]isoquinoline]-3′-carboxamide] | 382 nM | 383%
Cc1cc2c3c(ccc2cn1)OC[C@@H](Cc1ccccc1)NC(=O)[C@@H](CC(F)(F)F)N(C)C(=O)[C@H](CC(C)C)N(C)C(=O)C[C@@H](C(=O)NCCc1cc(C2CC2)no1)NC3=O [Example 956, (3S,7S,10R,13R)-13-benzyl-N-(2-(3-cyclopropylisoxazol-5-yl)ethyl)-7-isobutyl-6,9,20-trimethyl-1,5,8,11-tetraoxo-10-(2,2,2-trifluoroethyl)-1,2,3,4,5,6,7,8,9,10,11,12,13,14-tetradecahydro-[1]oxa[4,7,10,14]tetraazacycloheptadecino[16,17-f]isoquinoline-3-carboxamide] | 508 nM | 412%
COc1cc(CCNC(=O)[C@@H]2CC(=O)N(C)[C@@H](CC(C)C)C(=O)N(C)[C@H](CC(F)(F)F)C(=O)N[C@H](Cc3ccccc3)COc3ccc4cnc(C)cc4c3C(=O)N2)on1 [Example 957, (3S,7S,10R,13R)-13-benzyl-7-isobutyl-N-(2-(3-methoxyisoxazol-5-yl)ethyl)-6,9,20-trimethyl-1,5,8,11-tetraoxo-10-(2,2,2-trifluoroethyl)-1,2,3,4,5,6,7,8,9,10,11,12,13,14-tetradecahydro-[1]oxa[4,7,10,14]tetraazacycloheptadecino[16,17-f]isoquinoline-3-carboxamide] | 192 nM | 451%
Cc1cc2c3c(ccc2cn1)OC[C@@H](Cc1ccccc1)NC(=O)[C@@H](CC(F)(F)F)N(C)C(=O)[C@H](CC(C)C)N(C)C(=O)C[C@@H](C(=O)NCCn1nnc(C2CC2)n1)NC3=O [Example 959, (3S,7S,10R,13R)-13-benzyl-N-(2-(5-cyclopropyl-2H-tetrazol-2-yl)ethyl)-7-isobutyl-6,9,20-trimethyl-1,5,8,11-tetraoxo-10-(2,2,2-trifluoroethyl)-1,2,3,4,5,6,7,8,9,10,11,12,13,14-tetradecahydro-[1]oxa[4,7,10,14]tetraazacycloheptadecino[16,17-f]isoquinoline-3-carboxamide] | 222 nM | 413%
COc1noc(CCNC(=O)[C@@H]2CC(=O)N(C)[C@@H](CC(C)C)C(=O)N(C)[C@H](CC(F)(F)F)C(=O)N[C@H](Cc3ccccc3)COc3ccc4cnc(C)cc4c3C(=O)N2)c1F [Example 960, (3S,7S,10R,13R)-13-benzyl-N-(2-(4-fluoro-3-methoxyisoxazol-5-yl)ethyl)-7-isobutyl-6,9,20-trimethyl-1,5,8,11-tetraoxo-10-(2,2,2-trifluoroethyl)-1,2,3,4,5,6,7,8,9,10,11,12,13,14-tetradecahydro-[1]oxa[4,7,10,14]tetraazacycloheptadecino[16,17-f]isoquinoline-3-carboxamide] | 85 nM | 507%
COCCn1cc(CCNC(=O)[C@@H]2CC(=O)N(C)[C@@H](CC(C)C)C(=O)N(C)[C@H](Cc3nc(C(F)(F)F)no3)C(=O)N[C@H](Cc3ccccc3)COc3ccc4ncc(F)cc4c3C(=O)N2)cn1 [Example 962, (3S,7S,10R,13R)-13-benzyl-20-fluoro-7-isobutyl-N-(2-(1-(2-methoxyethyl)-1H-pyrazol-4-yl)ethyl)-6,9-dimethyl-1,5,8,11-tetraoxo-10-((3-(trifluoromethyl)-1,2,4-oxadiazol-5-yl)methyl)-1,2,3,4,5,6,7,8,9,10,11,12,13,14-tetradecahydro-[1]oxa[4,7,10,14]tetraazacycloheptadecino[16,17-f]quinoline-3-carboxamide] | 103 nM | 453%
COc1noc(CCNC(=O)[C@@H]2CC(=O)N(C)[C@@H](CC(C)C)C(=O)N(C)C3(CC3)C(=O)N[C@H](Cc3ccccc3)COc3ccc4ncc(F)cc4c3C(=O)N2)c1F [Example 963, (3′S,7′S,13′R)-13′-benzyl-20′-fluoro-N-(2-(4-fluoro-3-methoxyisoxazol-5-yl)ethyl)-7′-isobutyl-6′,9′-dimethyl-1′,5′,8′,11′-tetraoxo-2′,3′,4′,5′,6′,7′,8′,9′,11′,12′,13′,14′-dodecahydro-1′H-spiro[cyclopropane-1,10′-[1]oxa[4,7,10,14]tetraazacycloheptadecino[16,17-f]quinoline]-3′-carboxamide] | 267 nM | 447%

Other lines, results leading:

EC50 | Emax | SMILES
381 nM | 394% | Cc1cc2c3c(ccc2cn1)OC[C@@H](Cc1ccccc1)NC(=O)C1(CC(F)(F)C1)N(C)C(=O)[C@H](CC(C)C)N(C)C(=O)C[C@@H](C(=O)NCCn1nnc(C2CC2)n1)NC3=O [Example 955, (3′S,7′S,13′R)-13′-benzyl-N-(2-(5-cyclopropyl-2H-tetrazol-2-yl)ethyl)-3,3-difluoro-7′-isobutyl-6′,9′,20′-trimethyl-1′,5′,8′,11′-tetraoxo-2′,3′,4′,5′,6′,7′,8′,9′,11′,12′,13′,14′-dodecahydro-1′H-spiro[cyclobutane-1,10′-[1]oxa[4,7,10,14]tetraazacycloheptadecino[16,17-f]isoquinoline]-3′-carboxamide]
338 nM | 439% | Cc1cc2c3c(ccc2cn1)OC[C@@H](Cc1ccccc1)NC(=O)[C@@H](CC(F)(F)F)N(C)C(=O)[C@H](CC(C)C)N(C)C(=O)C[C@@H](C(=O)NCCc1cc(C2CC2)on1)NC3=O [Example 958, (3S,7S,10R,13R)-13-benzyl-N-(2-(5-cyclopropylisoxazol-3-yl)ethyl)-7-isobutyl-6,9,20-trimethyl-1,5,8,11-tetraoxo-10-(2,2,2-trifluoroethyl)-1,2,3,4,5,6,7,8,9,10,11,12,13,14-tetradecahydro-[1]oxa[4,7,10,14]tetraazacycloheptadecino[16,17-f]isoquinoline-3-carboxamide]
353 nM | 453% | COCCn1cc(CCNC(=O)[C@@H]2CC(=O)N(C)[C@@H](CC(C)C)C(=O)N(C)[C@H](Cc3nc(C(F)(F)F)no3)C(=O)N[C@H](Cc3ccccc3)COc3cc(C)nc(OC)c3C(=O)N2)cn1 [Example 961, (3R,6R,9S,13S)-3-benzyl-9-isobutyl-16-methoxy-N-(2-(1-(2-methoxyethyl)-1H-pyrazol-4-yl)ethyl)-7,10,18-trimethyl-5,8,11,15-tetraoxo-6-((3-(trifluoromethyl)-1,2,4-oxadiazol-5-yl)methyl)-2,3,4,5,6,7,8,9,10,11,12,13,14,15-tetradecahydropyrido[3,4-p][1]oxa[4,7,10,14]tetraazacycloheptadecine-13-carboxamide]
